Measurements as given in US20090203708A1, “NOVEL SUBSTITUTED-1-H-QUINAZOLINE-2,4-DIONE DERIVATIVES, PREPARATION METHOD THEREOF AND PHARMACEUTICAL COMPOSITION CONTAINING THE SAME” (Korea Research Institute of Chemical Technology, priority 2006, published 2009).

Tests used:
[1] = target: 5-HT7 (human recombinant receptor, CHO-K1) (Homo sapiens, UniProt P34969); test: Radioligand binding assay, 5-HT7
D3 (hD3 receptor) = D3 (hD3 receptor) (Homo sapiens, UniProt P35462); test: Radioligand binding assay, dopamine D3
[2] = target: T1, 5-HT1a (human recombinant receptor, CHO-K1) (Homo sapiens, UniProt P08908); test: Radioligand binding assay, 5-HT1a
T1 sequence (P08908 1-422): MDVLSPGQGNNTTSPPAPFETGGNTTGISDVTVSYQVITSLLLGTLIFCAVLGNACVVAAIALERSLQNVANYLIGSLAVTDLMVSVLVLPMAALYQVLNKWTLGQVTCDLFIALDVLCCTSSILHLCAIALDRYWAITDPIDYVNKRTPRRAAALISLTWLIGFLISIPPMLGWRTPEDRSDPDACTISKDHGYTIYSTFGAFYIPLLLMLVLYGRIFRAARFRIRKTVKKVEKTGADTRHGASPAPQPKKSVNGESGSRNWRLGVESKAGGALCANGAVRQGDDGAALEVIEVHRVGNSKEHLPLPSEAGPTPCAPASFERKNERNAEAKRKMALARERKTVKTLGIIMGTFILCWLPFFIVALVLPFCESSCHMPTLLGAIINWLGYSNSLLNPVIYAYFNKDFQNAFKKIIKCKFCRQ

[3] = target: human serotonin 5-HT6 receptor (Homo sapiens, UniProt P50406); test: [3H]LSD binding assay for cloned 5-HT6 receptors
[4] = target: 5-HT2a (human recombinant receptor, CHO-K1) (Homo sapiens, UniProt P28223); test: Radioligand binding assay, 5-HT2a
D1 receptor = D1 receptor (Homo sapiens, UniProt P21728); test: Radioligand binding assay, dopamine D1
D2 (hD2L receptor) = target: T2, D2 (hD2L receptor) (Homo sapiens, UniProt P14416); test: Radioligand binding assay, dopamine D2; conditions: [3H] spiperone 1 nM; read-out: Binding affinity IC50 D2
T2 construct: purchased BioSignal Packard Inc., Montreal, Canada
Experimental: (§1) Radioligand binding assays for dopamine receptor family (D1, D2 and D3) were performed according to the protocols provided by the manufacturer of receptor membranes (BioSignal Packard Inc., Montreal, Canada). The radioligands used were [^3H] spiperone (for hD2L and hD3 receptors, 1 nM) and [^3H] YM-09151-2 (hD4.2 receptor, 0.06 nM). Briefly, the buffer used in the D1, D2 and D3 receptor binding assay was 50 mM Tris-HCl (pH 7.4), containing 10 mM MgCl2 and 1 mM EDTA, or 50 mM Tris-HCl (pH 7.4), containing 5 mM MgCl2, 5 mM EDTA, 5 mM KCl, 1.5 mM CaCl2 and 120 mM NaCl. For [^3H] YM-09151-2 receptor binding assays, 50 mM Tris-HCl (pH 7.4) containing 5 mM MgCl2, 5 mM EDTA, 5 mM KCl and 1.5 mM CaCl2, was used as a buffer. Nonspecific binding was determined with haloperidol (10 μM) for D2 and D3 and clozapine (10 μM) for D4 receptors.
(§2) Competition binding studies were carried out with 7-8 concentrations of the test compound run in duplicate tubes, and isotherms from three assays were calculated by computerized nonlinear regression analysis (GraphPad Prism Program, San Diego, […]) to yield median inhibitory concentration (IC50) values.

D4 (hD4.2 receptor) = target: T3, D4 (hD4.2 receptor) (Homo sapiens, UniProt P21917, DEL265-296); test: Radioligand binding assay, dopamine D4; conditions: [3H] YM-09151-2 0.06 nM; read-out: Binding affinity IC50 D4
T3 construct: purchased BioSignal Packard Inc., Montreal, Canada
T3 sequence (P21917 with tags, fused parts or gaps DEL265-296): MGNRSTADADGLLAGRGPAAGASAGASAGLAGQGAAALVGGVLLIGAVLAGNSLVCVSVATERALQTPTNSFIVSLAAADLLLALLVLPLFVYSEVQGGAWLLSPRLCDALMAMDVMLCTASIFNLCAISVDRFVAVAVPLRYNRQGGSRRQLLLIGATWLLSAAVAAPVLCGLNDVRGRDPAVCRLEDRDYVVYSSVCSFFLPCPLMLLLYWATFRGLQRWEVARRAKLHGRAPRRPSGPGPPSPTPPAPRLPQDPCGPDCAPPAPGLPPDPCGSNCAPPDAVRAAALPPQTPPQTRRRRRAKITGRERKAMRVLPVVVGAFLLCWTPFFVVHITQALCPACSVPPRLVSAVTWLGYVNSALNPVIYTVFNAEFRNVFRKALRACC
Experimental: as §1, §2

[5] = target: T4, 5-HT2c (human recombinant receptor, CHO-K1) (Homo sapiens, UniProt P28335); test: Radioligand binding assay, 5-HT2c
T4 sequence (P28335 33-458): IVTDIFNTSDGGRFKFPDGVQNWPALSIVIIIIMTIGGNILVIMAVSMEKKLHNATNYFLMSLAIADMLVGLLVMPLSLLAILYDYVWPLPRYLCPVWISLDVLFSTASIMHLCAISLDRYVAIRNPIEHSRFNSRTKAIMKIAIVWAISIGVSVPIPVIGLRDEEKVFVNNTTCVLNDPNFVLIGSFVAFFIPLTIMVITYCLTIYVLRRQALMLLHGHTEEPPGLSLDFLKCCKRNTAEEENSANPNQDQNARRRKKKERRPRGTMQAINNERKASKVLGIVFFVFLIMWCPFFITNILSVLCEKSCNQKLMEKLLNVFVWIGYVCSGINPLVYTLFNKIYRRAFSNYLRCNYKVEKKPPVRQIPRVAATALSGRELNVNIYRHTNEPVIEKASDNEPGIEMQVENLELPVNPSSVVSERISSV

[6] = test system: apomorphine-induced PPI disruption; test: Apomorphine-induced PPI disruption in rat
rotarod deficit = test: Rotarod deficit in mice; format: in vivo
Experimental: In order to examine the effects of the compounds of the present invention on the central nervous system and behavior, a rotarod test was performed as follows.
Mice were placed on a plastic rod having a node 1 inch in diameter (Ugo-Basile, Milano, Italy), followed by rotating the rod at a speed of 6 rpm. 30, 60, 90 and 120 min after the administration of test compounds, the mice that fell from the rotating rod within 1 min were counted to determine rotarod deficits (%) (Dunham et al., 1957).

lethality = test: Lethality (LD50) in mice; format: in vivo; conditions: i.p.
[7] = test system: retention of a previously learned task; conditions: rats, literature; cited from earlier work
[8] = test system: rat maximal electroseizure threshold; conditions: oral administration, literature; cited from earlier work
[9] = in vivo; cited from earlier work

Sequence of 5-HT2a (human recombinant receptor, CHO-K1) (P28223 whole entry): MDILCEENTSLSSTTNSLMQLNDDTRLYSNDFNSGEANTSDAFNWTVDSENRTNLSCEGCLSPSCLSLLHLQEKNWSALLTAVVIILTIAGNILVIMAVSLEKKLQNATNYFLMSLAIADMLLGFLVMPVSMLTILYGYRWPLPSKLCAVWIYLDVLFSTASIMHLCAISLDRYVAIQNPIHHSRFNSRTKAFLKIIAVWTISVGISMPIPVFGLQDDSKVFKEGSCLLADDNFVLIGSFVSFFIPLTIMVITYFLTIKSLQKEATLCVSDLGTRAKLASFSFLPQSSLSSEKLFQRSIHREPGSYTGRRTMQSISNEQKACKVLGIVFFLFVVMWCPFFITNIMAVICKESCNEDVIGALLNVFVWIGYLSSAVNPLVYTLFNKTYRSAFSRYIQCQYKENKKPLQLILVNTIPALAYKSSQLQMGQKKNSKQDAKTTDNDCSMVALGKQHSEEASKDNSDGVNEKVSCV
T2 sequence (P14416 whole entry): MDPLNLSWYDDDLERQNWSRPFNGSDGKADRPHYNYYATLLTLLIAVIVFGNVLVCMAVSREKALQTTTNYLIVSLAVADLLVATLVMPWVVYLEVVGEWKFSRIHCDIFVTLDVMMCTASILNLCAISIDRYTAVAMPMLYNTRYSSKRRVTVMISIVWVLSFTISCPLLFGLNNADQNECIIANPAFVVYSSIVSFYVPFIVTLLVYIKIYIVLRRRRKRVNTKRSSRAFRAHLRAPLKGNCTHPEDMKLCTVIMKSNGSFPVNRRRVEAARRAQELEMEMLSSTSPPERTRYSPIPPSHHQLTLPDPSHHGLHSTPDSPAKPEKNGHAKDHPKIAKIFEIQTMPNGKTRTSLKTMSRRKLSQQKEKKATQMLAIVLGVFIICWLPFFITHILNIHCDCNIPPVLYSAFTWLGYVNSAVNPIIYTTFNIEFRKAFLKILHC
Sequence of D3 (hD3 receptor) (P35462 whole entry): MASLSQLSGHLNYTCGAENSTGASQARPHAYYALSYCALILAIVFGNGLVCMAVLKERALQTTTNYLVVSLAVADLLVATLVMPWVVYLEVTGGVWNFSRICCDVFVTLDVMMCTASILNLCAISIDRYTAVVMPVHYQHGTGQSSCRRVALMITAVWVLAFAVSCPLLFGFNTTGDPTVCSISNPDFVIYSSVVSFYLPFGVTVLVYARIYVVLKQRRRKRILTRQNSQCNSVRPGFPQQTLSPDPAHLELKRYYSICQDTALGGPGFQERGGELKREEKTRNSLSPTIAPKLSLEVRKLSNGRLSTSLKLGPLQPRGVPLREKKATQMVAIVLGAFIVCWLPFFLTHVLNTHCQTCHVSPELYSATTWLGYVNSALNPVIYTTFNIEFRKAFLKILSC
Sequence of D1 receptor (P21728 whole entry): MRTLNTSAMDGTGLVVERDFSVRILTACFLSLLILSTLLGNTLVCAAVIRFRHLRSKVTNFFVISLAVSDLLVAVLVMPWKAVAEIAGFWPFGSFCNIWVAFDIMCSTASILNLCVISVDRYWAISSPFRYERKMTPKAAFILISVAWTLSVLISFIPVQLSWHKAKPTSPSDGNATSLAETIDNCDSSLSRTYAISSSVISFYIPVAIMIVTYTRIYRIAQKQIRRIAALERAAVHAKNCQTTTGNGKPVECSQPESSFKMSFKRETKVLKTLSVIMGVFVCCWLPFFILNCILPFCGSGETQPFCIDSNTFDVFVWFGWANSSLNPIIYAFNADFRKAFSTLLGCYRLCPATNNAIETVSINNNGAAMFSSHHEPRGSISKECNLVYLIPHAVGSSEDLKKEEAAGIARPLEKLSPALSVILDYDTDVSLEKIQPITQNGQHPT
Sequence of human serotonin 5-HT6 receptor (P50406 whole entry): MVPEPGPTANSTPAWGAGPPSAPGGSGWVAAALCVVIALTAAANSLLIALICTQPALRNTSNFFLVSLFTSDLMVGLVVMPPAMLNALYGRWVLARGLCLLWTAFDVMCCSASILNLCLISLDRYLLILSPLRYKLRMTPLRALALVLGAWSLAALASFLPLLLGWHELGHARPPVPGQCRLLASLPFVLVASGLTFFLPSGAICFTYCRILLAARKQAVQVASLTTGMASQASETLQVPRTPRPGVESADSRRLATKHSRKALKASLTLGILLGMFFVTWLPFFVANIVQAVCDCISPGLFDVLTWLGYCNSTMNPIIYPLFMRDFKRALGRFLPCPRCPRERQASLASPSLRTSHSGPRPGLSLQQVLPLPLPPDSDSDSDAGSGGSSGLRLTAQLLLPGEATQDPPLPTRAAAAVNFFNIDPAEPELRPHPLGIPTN
Sequence of 5-HT7 (human recombinant receptor, CHO-K1) (P34969 whole entry): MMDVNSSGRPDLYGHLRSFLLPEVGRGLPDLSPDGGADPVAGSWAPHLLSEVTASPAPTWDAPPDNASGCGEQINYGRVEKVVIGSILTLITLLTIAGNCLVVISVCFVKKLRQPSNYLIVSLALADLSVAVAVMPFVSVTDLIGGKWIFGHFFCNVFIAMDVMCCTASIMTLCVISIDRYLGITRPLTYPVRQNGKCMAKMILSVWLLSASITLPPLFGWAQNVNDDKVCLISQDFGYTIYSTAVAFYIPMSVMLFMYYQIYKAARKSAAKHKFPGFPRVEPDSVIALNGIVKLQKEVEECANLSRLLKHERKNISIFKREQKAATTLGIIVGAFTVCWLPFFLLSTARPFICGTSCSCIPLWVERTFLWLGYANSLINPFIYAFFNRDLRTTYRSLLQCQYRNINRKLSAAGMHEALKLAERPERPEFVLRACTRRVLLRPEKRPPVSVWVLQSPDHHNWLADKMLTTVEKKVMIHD

| SMILES | IC50 [1] [nM] | IC50 (D3 (hD3 receptor)) [nM] | IC50 [2] [nM] | IC50 [3] [nM] | IC50 [4] [nM] | IC50 (D1 receptor) [nM] | IC50 (D2 (hD2L receptor)) [nM] | melting point [°C] | IC50 (D4 (hD4.2 receptor)) [nM] | IC50 [5] [nM] | effect of compound alone on PPI versus vehicle control ([6]; rat, 2.5, 5, 10 and 20 mg/kg i.p. alone) | mean startle amplitude versus apomorphine positive control ([6]; rat, given 30 min before apomorphine) | effect of pretreatment on apomorphine-induced PPI disruption ([6]; rat, i.p. 30 min before apomorphine (2 mg/kg, i.p.), 2.5, 5, 10 and 20 mg/kg) | Rotarod Deficit TD50 (rotarod deficit; mice, i.p. 30 min before testing) | rotarod dysfunction (rotarod deficit; mouse, in vivo, ip, 150 mg/kg, 120 min) [%] | Lethal Degrees LD50 (lethality) | retention of a previously learned task in water maze [7] | seizure threshold (rat maximal electroseizure threshold) [8] | bioavailability (in words) [9] | clearance (in words) [9] |
| --- | --- | --- | --- | --- | --- | --- | --- | --- | --- | --- | --- | --- | --- | --- | --- | --- | --- | --- | --- | --- |
| CN1CCN(c2cc(Cl)cc3c2c(=O)n(Cc2ccccc2)c(=O)n3Cc2ccccc2)CC1 [Example 10, 1,3-dibenzyl-7-chloro-5-(4-methyl-piperazin-1yl)-1H-quinazoline-2,4-dione] | 6780 | 1550 | 4590 | 2.4 | 1690 | 5560 | 4350 | 113 to 116 | > 10000 | 4760 |  |  |  |  |  |  |  |  |  |  |
| CN1CCN(c2cc(Cl)cc3c2c(=O)n(CCc2ccccc2)c(=O)n3Cc2ccccc2)CC1 [Example 42, 1-benzyl-7-chloro-5-(4-methyl-piperazin-1-yl)-3-phenethyl-1H-quinazoline-2,4-dione] | 7030 | 638 | 1300 | 0.5 | 244 | 3450 | 2500 | 136 to 138 | > 10000 | 430 |  |  |  |  |  |  |  |  |  |  |
| CN1CCN(c2cc(Cl)cc3c2c(=O)n(CCCc2ccccc2)c(=O)n3Cc2ccccc2)CC1 [Example 43, 1-benzyl-7-chloro-5-(4-methyl-piperazin-1-yl)-3-(3-phenyl-propyl)-1H-quinazoline-2,4-dione] | 7760 | 1750 | 2640 | 2.7 | 892 | 961 | 5670 | 55 to 63 | > 10000 | 1420 |  |  |  |  |  |  |  |  |  |  |
| O=c1c2c(N3CCNCC3)cc(Cl)cc2n(Cc2ccccc2)c(=O)n1Cc1ccccc1Br [Example 60, 1-benzyl-3-(2-bromo-benzyl)-7-chloro-5-piperazin-1-yl-1H-quinazoline-2,4-dione] |  |  |  | 3.9 |  |  |  | 94 to 97 |  |  | no significant effects |  |  |  |  |  |  |  |  |  |
| C[C@H](c1ccccc1)n1c(=O)c2c(N3CCNCC3)cc(Cl)cc2n(Cc2ccccc2)c1=O [Example 68, 1-benzyl-7-chloro-3-[(R)-1-phenyl-ethyl]-5-piperazin-1yl-1H-quinazoline-2,4-dione] |  |  |  | 6.8 |  |  |  |  |  |  |  | did not induce significant difference in mean startle amplitude | found to inhibit apomorphine (2 mg/kg, i.p.)-induced PPI disruption | 122 mg/kg, ip | 100 | 152 mg/kg, ip |  |  |  |  |
| O=c1c2c(N3CCNCC3)cc(Cl)cc2n(Cc2ccccc2)c(=O)n1CCc1ccccc1 [Example 70, 1-benzyl-7-chloro-3-phenethyl-5-piperazin-1-yl-1H-quinazoline-2,4-dione] | 7710 | 2840 | 2910 | 0.6 | 401 | 5710 | 7440 |  | > 10000 | 752 |  |  |  |  |  |  |  |  |  |  |
| O=c1c2c(N3CCNCC3)cc(Cl)cc2n(Cc2ccccc2)c(=O)n1CCCc1ccccc1 [Example 71, 1-benzyl-7-chloro-3-(3-phenyl-propyl)-5-piperazin-1-yl-1H-quinazoline-2,4-dione] | 3050 | 1200 | 891 | 1.8 | 733 | 2320 | 2720 | 62 to 68 | > 10000 | 1100 |  |  |  |  |  |  |  |  |  |  |
| COc1ccc(S(=O)(=O)Nc2cc(Br)cc(F)c2Br)cc1N1CCNCC1 [SB-357134] |  |  |  |  |  |  |  |  |  |  |  |  |  |  |  |  | significant improvement in retention of a previously learned task | potent and dose-dependent increase in seizure threshold | excellent oral bioavailability | low clearance rate |
